# Values joined by “and” are separate entries in the source; they are usually repeats but may differ in a detail not shown here. Equal values may be shown once.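 96-well plates; 48 h exposure; 5 concentrations. Endpoints by linear interpolation between flanking doses. Not reached: highest tested concentration assigned. GI50 marks 50% less growth. At the TGI there is no net growth.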
# How the values were obtained:
# Experiment in all cases: growth of human tumour cells (NCI), 48 h
# [1] = tested on: SF-295 CNS
# [2] = tested on: SK-MEL-5 melanoma
# [3] = tested on: BT-549 breast
# [4] = tested on: UACC-62 melanoma
# [5] = tested on: OVCAR-4 ovarian
# [6] = tested on: SF-539 CNS
# [7] = tested on: MCF7 breast
# [8] = tested on: MDA-MB-231 breast
# [9] = tested on: HCC-2998 colon
# [10] = tested on: SW-620 colon
# [11] = tested on: DU-145 prostate
# [12] = tested on: NCI/ADR-RES ovarian
# [13] = tested on: LOX IMVI melanoma
# [14] = tested on: MDA-MB-435
# [15] = tested on: UO-31 renal
# [16] = tested on: SF-268 CNS
# [17] = tested on: SNB-19 CNS
# [18] = tested on: CAKI-1 renal
# [19] = tested on: HCT-116 colon
# [20] = tested on: HCT-15 colon
# [21] = tested on: RXF 393 renal
# [22] = tested on: RPMI-8226 leukemia
# [23] = tested on: A498 renal
# [24] = tested on: TK-10 renal
# [25] = tested on: SR leukemia
# [26] = tested on: NCI-H460 lung
# [27] = tested on: OVCAR-5 ovarian
# [28] = tested on: SK-OV-3 ovarian
# [29] = tested on: SNB-75 CNS
# [30] = tested on: ACHN renal
# [31] = tested on: HT29 colon
# [32] = tested on: KM12 colon
# [33] = tested on: HL-60(TB) leukemia
# [34] = tested on: HOP-92 NSCLC
# [35] = tested on: NCI-H226 lung
# [36] = tested on: EKVX NSCLC
# [37] = tested on: 786-0 renal
# [38] = tested on: UACC-257 melanoma
# [39] = tested on: SK-MEL-28 melanoma
# [40] = tested on: U251 CNS
# [41] = tested on: SN12C renal
# [42] = tested on: HOP-62 NSCLC
# [43] = tested on: SK-MEL-2 melanoma
# [44] = tested on: CCRF-CEM leukemia
# [45] = tested on: NCI-H23 lung
# [46] = tested on: MALME-3M melanoma
# [47] = tested on: IGROV1 ovarian
# [48] = tested on: HS 578T breast
# [49] = tested on: PC-3 prostate
# [50] = tested on: K-562 leukemia
# [51] = tested on: NCI-H522 lung
# [52] = tested on: T-47D breast
# [53] = tested on: OVCAR-8 ovarian
# [54] = tested on: COLO 205 colon
# [55] = tested on: M14 melanoma
# [56] = tested on: A549 NSCLC
# [57] = tested on: MOLT-4 leukemia
# [58] = tested on: OVCAR-3 ovarian
structure (smiles),measurement,setting,value
Nc1ccn(C2OC(CO)C(O)C2F)c(=O)n1 (configuration not stated),GI50,[1],> 5000 µM
same,TGI,[1],> 5000 µM
same,GI50,[2],> 5000 µM
same,TGI,[2],> 5000 µM
same,GI50,[3],> 5000 µM
same,TGI,[3],> 5000 µM
same,GI50,[4],> 5000 µM
same,TGI,[4],> 5000 µM
same,GI50,[5],> 5000 µM
same,TGI,[5],> 5000 µM
same,GI50,[6],> 5000 µM
same,TGI,[6],> 5000 µM
same,GI50,[7],2.98 µM
same,TGI,[7],> 5000 µM
same,GI50,[8],> 5000 µM
same,TGI,[8],> 5000 µM
same,GI50,[9],> 5000 µM
same,TGI,[9],> 5000 µM
same,GI50,[10],> 5000 µM
same,TGI,[10],> 5000 µM
same,GI50,[11],> 5000 µM
same,TGI,[11],> 5000 µM
same,TGI,[12],> 5000 µM
same,GI50,[13],> 5000 µM
same,TGI,[13],> 5000 µM
same,GI50,[14],867 µM and > 5000 µM
same,TGI,[14],> 5000 µM
same,GI50,[15],> 5000 µM
same,TGI,[15],> 5000 µM
same,GI50,[16],> 5000 µM
same,TGI,[16],> 5000 µM
same,GI50,[17],19.5 µM
same,TGI,[17],> 5000 µM
same,GI50,[18],582 µM and > 5000 µM
same,TGI,[18],> 5000 µM
same,GI50,[19],> 5000 µM
same,TGI,[19],> 5000 µM
same,GI50,[20],> 5000 µM
same,TGI,[20],> 5000 µM
same,GI50,[21],> 5000 µM
same,TGI,[21],> 5000 µM
same,GI50,[22],> 5000 µM
same,TGI,[22],> 5000 µM
same,GI50,[23],> 5000 µM
same,TGI,[23],> 5000 µM
same,GI50,[24],> 5000 µM
same,TGI,[24],> 5000 µM
same,GI50,[25],412 µM and 2500 µM
same,TGI,[25],> 5000 µM
same,GI50,[26],810 µM and 773 µM
same,TGI,[26],> 5000 µM
same,GI50,[27],> 5000 µM
same,TGI,[27],> 5000 µM
same,GI50,[28],> 5000 µM
same,TGI,[28],> 5000 µM
same,GI50,[29],> 5000 µM
same,TGI,[29],> 5000 µM
same,GI50,[30],> 5000 µM
same,TGI,[30],> 5000 µM
same,GI50,[31],> 5000 µM
same,TGI,[31],> 5000 µM
same,GI50,[32],> 5000 µM
same,TGI,[32],> 5000 µM
same,GI50,[33],189 µM
same,GI50,[34],> 5000 µM
same,TGI,[34],> 5000 µM
same,GI50,[35],> 5000 µM
same,TGI,[35],> 5000 µM
same,GI50,[36],> 5000 µM
same,TGI,[36],> 5000 µM
same,GI50,[37],> 5000 µM
same,TGI,[37],> 5000 µM
same,GI50,[38],> 5000 µM
same,TGI,[38],> 5000 µM
same,GI50,[39],> 5000 µM
same,TGI,[39],> 5000 µM
same,GI50,[40],> 5000 µM
same,TGI,[40],> 5000 µM
same,GI50,[41],> 5000 µM
same,TGI,[41],> 5000 µM
same,GI50,[42],> 5000 µM
same,TGI,[42],> 5000 µM
same,GI50,[43],> 5000 µM
same,TGI,[43],> 5000 µM
same,GI50,[44],1.67 µM
same,GI50,[45],> 5000 µM
same,TGI,[45],> 5000 µM
same,GI50,[46],> 5000 µM
same,TGI,[46],> 5000 µM
same,GI50,[47],> 5000 µM
same,TGI,[47],> 5000 µM
same,GI50,[48],> 5000 µM
same,TGI,[48],> 5000 µM
same,GI50,[49],> 5000 µM
same,TGI,[49],> 5000 µM
same,GI50,[50],> 5000 µM
same,TGI,[50],> 5000 µM
same,GI50,[51],3990 µM
same,TGI,[51],> 5000 µM
same,GI50,[52],> 5000 µM
same,TGI,[52],> 5000 µM
same,GI50,[53],57.1 µM
same,GI50,[54],688 µM
same,TGI,[54],> 5000 µM
same,GI50,[55],> 5000 µM
same,TGI,[55],> 5000 µM
same,GI50,[56],> 5000 µM
same,TGI,[56],> 5000 µM
same,GI50,[57],2.98 µM
same,GI50,[58],> 5000 µM
same,TGI,[58],> 5000 µM
Cc1c2cnccc2c(C)c2c1c1cc(C3OCCCO3)ccc1n2C,GI50,[1],0.348 µM
same,TGI,[1],1.9 µM
same,GI50,[2],0.379 µM
same,TGI,[2],1.44 µM
same,GI50,[3],0.52 µM
same,TGI,[3],2.11 µM
same,GI50,[4],0.197 µM
same,TGI,[4],0.747 µM
same,GI50,[5],0.264 µM
same,TGI,[5],1.12 µM
same,GI50,[6],0.272 µM
same,TGI,[6],1.32 µM
same,GI50,[7],0.255 µM
same,TGI,[7],1.35 µM
same,GI50,[8],0.322 µM
same,TGI,[8],1.8 µM
same,GI50,[9],0.659 µM
same,TGI,[9],2.94 µM
same,GI50,[10],0.205 µM
same,TGI,[10],1.64 µM
same,GI50,[11],0.371 µM
same,TGI,[11],1.58 µM
same,GI50,[12],0.157 µM
same,TGI,[12],1.83 µM
same,GI50,[13],0.146 µM
same,TGI,[13],0.659 µM
same,GI50,[14],0.411 µM
same,TGI,[14],1.55 µM
same,GI50,[15],0.278 µM
same,TGI,[15],2.27 µM
same,GI50,[16],0.268 µM
same,TGI,[16],1.71 µM
same,GI50,[17],0.295 µM
same,TGI,[17],2.97 µM
same,GI50,[18],0.314 µM
same,TGI,[18],3.45 µM
same,GI50,[19],0.0472 µM
same,TGI,[19],1.05 µM
same,GI50,[20],0.281 µM
same,TGI,[20],1.4 µM
same,GI50,[21],0.172 µM
same,TGI,[21],0.921 µM
same,GI50,[22],0.282 µM
same,TGI,[22],1.28 µM
same,GI50,[23],0.139 µM
same,TGI,[23],0.52 µM
same,GI50,[24],0.541 µM
same,TGI,[24],4.14 µM
same,GI50,[25],0.0686 µM
same,TGI,[25],1.43 µM
same,GI50,[26],0.293 µM
same,TGI,[26],1.15 µM
same,GI50,[27],0.436 µM
same,TGI,[27],3.7 µM
same,GI50,[28],0.325 µM
same,TGI,[28],1.76 µM
same,GI50,[29],0.257 µM
same,TGI,[29],1.37 µM
same,GI50,[30],0.318 µM
same,TGI,[30],2.04 µM
same,GI50,[31],0.363 µM
same,TGI,[31],2.12 µM
same,GI50,[32],0.5 µM
same,TGI,[32],3.77 µM
same,GI50,[33],0.375 µM
same,TGI,[33],1.77 µM
same,GI50,[34],0.281 µM
same,TGI,[34],1.66 µM
same,GI50,[35],0.213 µM
same,TGI,[35],0.962 µM
same,GI50,[36],0.451 µM
same,TGI,[36],2.56 µM
same,GI50,[37],0.457 µM
same,TGI,[37],3.25 µM
same,GI50,[38],0.343 µM
same,TGI,[38],1.8 µM
same,GI50,[39],0.459 µM
same,TGI,[39],1.68 µM
same,GI50,[40],0.308 µM
same,TGI,[40],1.33 µM
same,GI50,[41],0.192 µM
same,TGI,[41],1.3 µM
same,GI50,[42],0.286 µM
same,TGI,[42],1.82 µM
same,GI50,[43],0.314 µM
same,TGI,[43],1.22 µM
same,GI50,[44],0.291 µM
same,TGI,[44],3.81 µM
same,GI50,[45],0.215 µM
same,TGI,[45],1.21 µM
same,GI50,[46],0.29 µM
same,TGI,[46],1.12 µM
same,GI50,[47],0.337 µM
same,TGI,[47],2.37 µM
same,GI50,[48],0.416 µM
same,TGI,[48],2.83 µM
same,GI50,[49],0.402 µM
same,TGI,[49],2.24 µM
same,GI50,[50],0.418 µM
same,TGI,[50],2.69 µM
same,GI50,[51],0.466 µM
same,TGI,[51],2.48 µM
same,GI50,[52],0.299 µM
same,TGI,[52],3.16 µM
same,GI50,[53],0.139 µM
same,TGI,[53],1.95 µM
same,GI50,[54],0.357 µM
same,TGI,[54],1.75 µM
same,GI50,[55],0.317 µM
same,TGI,[55],1.16 µM
same,GI50,[56],0.461 µM
same,TGI,[56],2.5 µM
same,GI50,[57],0.332 µM
same,TGI,[57],1.74 µM
same,GI50,[58],0.419 µM
same,TGI,[58],2 µM

# — PubChem BioAssay (NCI)
